Our source for the IC50 values is US11485731B2, “Compounds and methods useful in the treatment of a PRMT5-mediated disorder” (ARGONAUT THERAPEUTICS LIMITED, priority 2017, dated 2022).

SMILES strings stand for the structures. pIC50: −log10 of the molar value.

Sequence of human PRMT5/MEP50 (O14744 whole entry): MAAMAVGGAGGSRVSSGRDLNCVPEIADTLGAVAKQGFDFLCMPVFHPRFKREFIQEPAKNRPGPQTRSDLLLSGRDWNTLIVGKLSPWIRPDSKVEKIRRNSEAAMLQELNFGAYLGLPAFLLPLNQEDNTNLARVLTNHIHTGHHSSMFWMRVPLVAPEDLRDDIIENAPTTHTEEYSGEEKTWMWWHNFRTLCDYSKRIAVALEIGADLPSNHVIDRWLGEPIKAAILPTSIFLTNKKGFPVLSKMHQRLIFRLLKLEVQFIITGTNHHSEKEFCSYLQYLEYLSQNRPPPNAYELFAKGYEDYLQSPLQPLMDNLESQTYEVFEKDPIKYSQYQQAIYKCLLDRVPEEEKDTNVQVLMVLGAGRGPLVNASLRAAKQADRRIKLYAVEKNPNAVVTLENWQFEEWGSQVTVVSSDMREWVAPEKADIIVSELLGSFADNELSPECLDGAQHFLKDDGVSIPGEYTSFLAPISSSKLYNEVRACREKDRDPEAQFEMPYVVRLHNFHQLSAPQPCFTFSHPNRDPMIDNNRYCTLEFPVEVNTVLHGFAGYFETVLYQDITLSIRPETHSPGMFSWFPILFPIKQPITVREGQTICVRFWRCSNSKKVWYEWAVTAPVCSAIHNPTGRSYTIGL
Sequence of human PRMT5/MEP50 (Q9BQA1 whole entry partner): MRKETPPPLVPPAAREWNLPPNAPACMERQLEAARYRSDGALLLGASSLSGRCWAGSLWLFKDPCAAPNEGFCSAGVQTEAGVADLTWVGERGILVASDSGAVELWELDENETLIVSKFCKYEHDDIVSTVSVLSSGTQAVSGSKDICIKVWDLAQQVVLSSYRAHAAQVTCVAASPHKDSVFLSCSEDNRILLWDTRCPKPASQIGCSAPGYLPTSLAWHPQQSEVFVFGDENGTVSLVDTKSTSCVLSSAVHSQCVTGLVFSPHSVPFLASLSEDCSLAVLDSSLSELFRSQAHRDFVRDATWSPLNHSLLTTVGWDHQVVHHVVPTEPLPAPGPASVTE

The assay deals with human PRMT5/MEP50 (Homo sapiens (Human), UniProt O14744). Nature of the assay: PRMT5 chemiluminescent assay. Type of assay: biochemical. The settings on record: human PRMT5/MEP50 expressed in HEK293 cells; biotinylated histone peptides; Histone H4 monomethyl R3 antibody; chemiluminescent readout. The method, then:
A PRMT5 chemiluminescent assay was used to measure the IC50 activity of PRMT5 of the compounds of Examples 1A to 7 above. Biotinylated histone peptides were synthesized and attached to 384-well plates. Compound serial dilutions were performed and added to the assay plate. Histone H4 monomethyl R3 antibody was obtained from Abcam. A master mix for each well was prepared and human PRMT5/MEP50 (expressed in HEK293 cells) diluted in assay buffer to a concentration of 5 ng/μL. The reaction was incubated and slowly rotated for 60 minutes at the point of PRMT5/MEP50 addition. The supernatant from the wells was removed and blocking buffer was added to each well and rotated for 10 minutes. The primary antibody was diluted and added to every well for 60 minutes, before it was removed and the wells washed. The horse raddish peroxidase (HRP)-coupled secondary antibody was diluted and added to each well with an incubation time of 30 minutes. The HRP chemiluminescent substrate was added to every well. The plate was read on a Flourstar Omega BMG Labtech instrument (Ortenberg, Germany) and the analysis of IC50 was performed using the Flourstar Omega BMG Labtech software.
As for `CS(=O)(=O)N1CCCN(C(=O)NC[C@H](O)CN2CCc3ccccc3C2)CC1` [Example 1AQ, (S)-N-(3-(3,4-dihydroisoquinolin-2(1H)-yl)-2-hydroxypropyl)-4-(methylsulfonyl)-1,4-diazepane-1-carboxamide], the pIC50 (usually the negative decadic logarithm of the IC50, by convention in mol/L) was 7.11. `O=C(NCC(O)CN1CCc2sccc2C1)N1CCC(c2ccccc2)C1` (stereo not shown) [Example 1AE, N-(3-(6,7-dihydrothieno[3,2-c]pyridin-5(4H)-yl)-2-hydroxypropyl)-3-phenylpyrrolidine-1-carboxamide] showed a pIC50 of 7.14.

Compound `O=C(NCC(O)CN1CCc2ccccc2C1)N1CCc2ccccc2C1` (stereo not shown) [Example 1I, N-[2-hydroxy-3-(1,2,3,4-tetrahydroisoquinolin-2-yl)propyl]-1,2,3,4-tetrahydroisoquinoline-2-carboxamide] showed a pIC50 of 6.68. On to `O=C(OC[C@H](O)CN1CCc2ccccc2C1)N1CCC(c2ccccn2)C1` (stereo partly drawn) [Example 4R, (R)-3-(3,4-dihydroisoquinolin-2(1H)-yl)-2-hydroxypropyl 3-(pyridin-2-yl)pyrrolidine-1-carboxylate], for which the pIC50 is 7.09. `O=C(NC[C@H](O)CN1CCc2ccccc2C1)N1CCCC(N2CCCSCC2)C1` (stereo partly drawn) [Example 1CB, N-((S)-3-(3,4-dihydroisoquinolin-2(1H)-yl)-2-hydroxypropyl)-3-(1,4-thiazepan-4-yl)piperidine-1-carboxamide] had a pIC50 of 6.47. With `COC(=O)N1CCCN(C(=O)OCC(O)CN2CCc3ccccc3C2)CC1` (stereo not shown) [Example 4W, 1-(3-(3,4-dihydroisoquinolin-2(1H)-yl)-2-hydroxypropyl) 4-methyl 1,4-diazepane-1,4-dicarboxylate] the figure was 4.97; with `CN1CCCN(C(=O)OCC(O)CN2CCc3ccccc3C2)CC1` (stereo not shown) [Example 4J, 3-(3,4-dihydroisoquinolin-2(1H)-yl)-2-hydroxypropyl 4-methyl-1,4-diazepane-1-carboxylate], 6.61. `O=C(NC[C@H](O)CN1CCc2ccccc2C1)N1CCC(N2CCOCC2)C1` (stereo partly drawn) [Example 1CD, N-((S)-3-(3,4-dihydroisoquinolin-2(1H)-yl)-2-hydroxypropyl)-3-morpholinopyrrolidine-1-carboxamide] had a pIC50 of 4.91. `O=C(NC[C@H](O)CN1CCc2ccccc2C1)N1CCCC(N2CCN(Cc3ccccc3)CC2)C1` (stereo partly drawn) [Example 1CH, 3-(4-benzylpiperazin-1-yl)-N-((S)-3-(3,4-dihydroisoquinolin-2(1H)-yl)-2-hydroxypropyl)piperidine-1-carboxamide] gave a pIC50 of 5.72. For `O=C(NC[C@H](O)CN1CCc2ccccc2C1)N1CCS[C@@H](c2ccccc2)C1` (single isomer, unassigned) [Example 5D, (S)-N-((S)-3-(3,4-dihydroisoquinolin-2(1H)-yl)-2-hydroxypropyl)-2-phenylthiomorpholine-4-carboxamide or (R)-N-((S)-3-(3,4-dihydroisoquinolin-2(1H)-yl)-2-hydroxypropyl)-2-phenylthiomorpholine-4-carboxamide], the pIC50 is 7.00. Compound `O=C(OC[C@H](O)CN1CCc2ccccc2C1)N1CCC(c2ccccc2)C1` (stereo partly drawn) [Example 4E, (R)-3-(3,4-dihydroisoquinolin-2(1H)-yl)-2-hydroxypropyl 3-phenylpyrrolidine-1-carboxylate] gave a pIC50 of 7.72. The compound `O=C(NC[C@H](O)CN1CCc2ccccc2C1)N1CC[C@H](c2ccccc2)C1` [Example 1CJ, (R)-N-((S)-3-(3,4-dihydroisoquinolin-2(1H)-yl)-2-hydroxypropyl)-3-phenylpyrrolidine-1-carboxamide] gave a pIC50 of 7.24. For `O=C(OCC(O)CN1CCc2sccc2C1)N1CCCc2ccccc21` (stereo not shown) [Example 4Y, 3-(6,7-dihydrothieno[3,2-c]pyridin-5(4H)-yl)-2-hydroxypropyl 3,4-dihydroquinoline-1(2H)-carboxylate], the pIC50 is 5.84.
